# Assay results reported in patent publication US20170368089A1, “COMPOSITION FOR PREVENTING OR TREATING COLITIS” (UNIVERSITY-INDUSTRY COOPERATION GROUP OF KYUNG HEE …, priority 2012, published 2017).
# Legend:
# [1] = tested on: model animal with acute colitis induced by TNBS; test: Acute colitis induced by TNBS in mice, appearance analysis of colon (colon length, macroscopic score), first experiment; assay type: in vivo, ICR male mice; conditions: Table 3 (group 2); TNBS-treated mice, 10 mg/kg orally, 3 days
# Protocol: 4-week ICR male mice (24 to 27 g) were purchased from OrientBio. All the mice were bred under the controlled environmental conditions of 50±10% of humidity and 25±2° C. of temperature, and the lighting was repeatedly on for 12 hours and off for 12 hours. A feed for a standard experiment (Samyang, Korea) was used as a feed, and water was freely taken. For all the experiments, one group was 6 mice. […] Meanwhile, 0.1 ml of normal saline solution was orally administered to the normal group. Since then, from the next day, the sample dissolved in normal saline solution was orally administered in the volume that was decided in advance one time a day for 3 days. At the next day after completing the sample administration, the experimental animals were suffocated to death with carbon dioxide, the colon from appendix to the region just before the anus was removed from the colon region. The scores about the removed colons were estimated by observing the appearances and the lengths of the colons according to the following criteria (Hollenbach, and the like, the criteria about the level of colon in 2005) as listed in Table 1. […] In addition, some of the content in the colon was collected in order to analyze the rumen microorganisms, and then, was stored in a freezer of −80° C. From the tissue of colon, the content in the colon was completely removed and then the tissue of colon was washed with normal saline solution. Since then, some of the tissue was fixed with 4% formaldehyde fixing solution in order to be used as a sample for a histopathological examination, and the rest was stored in a freezer of −80° C. for a molecular biological analysis.
# IL-1 beta = IL-1 beta expression in colon tissue (ELISA), TNBS colitis, first experiment; assay type: in vivo, ICR male mice; conditions: TNBS-treated mice, 10 mg/kg orally, 3 days
# Protocol: (§1) Among the experimental groups, one group was set as a normal group, and for the experimental animals in other groups, colitis was induced with 2,4,6-trinitrobenzenesulfonic acid (TNBS). In detail, after lightly anesthetizing the experimental animals with ether, 0.1 ml of the solution prepared by mixing […] of 2,4,6-Trinitrobenzene sulfonic acid (NBS) solution with 50% ethanol was injected into the colon through the anus using a syringe having 1 ml volume and oval point, respectively; and then, the syringe was vertically picked up, and then, maintained for 30 seconds to induce the inflammation. Meanwhile, 0.1 ml of normal saline solution was orally administered to the normal group. Since then, from the next day, the sample dissolved in normal saline solution was orally administered in the volume that was decided in advance one time a day for 3 days. At the next day after completing the sample administration, the experimental animals were suffocated to death with carbon dioxide, the colon from appendix to the region just before the anus was removed from the colon region.
# (§2) 250 μl of RIPA butter including protease inhibitor cocktail was added to 100 mg of the colon tissue of experimental animal, and then, the colon tissue was homogenized. Since then, the homogenized colon tissue was centrifuged under the conditions of 4° C. and 13000 rpm for 15 minutes to obtain supernatant. While the supernatant was stored at −80° C., the expression amounts of IL-1 beta, IL-6, and TNF-alpha were measured using a 96-well ELISA plate kits (Pierce Biotechology, Inc., Rockford, Ill., USA).
# TNF-alpha [2] = test: TNF-alpha expression in colon tissue (ELISA), TNBS colitis, second experiment; assay type: in vivo, ICR male mice; conditions: Table 9, extract-based samples, TNBS-treated mice, 10 mg/kg orally, 3 days
# Protocol: as §1, with “At the next day after completing the sample administration, the experimental animals were suffocated to death with carbon dioxide, the colon from appendix to the region just before the anus was removed from the colon region.” left out
# as §2, with “Since then, the homogenized colon tissue was centrifuged under the conditions of 4° C. and 13000 rpm for 15 minutes to obtain supernatant.” left out
# TNF-alpha [3] = test: TNF-alpha expression in colon tissue (ELISA), TNBS acute colitis, third experiment; assay type: in vivo, male mice (C57BL/6); conditions: Table 12; TNBS-treated mice, 10 mg/kg orally, 3 days
# Protocol: Meanwhile, 0.1 ml of normal saline solution was orally administered to the normal group. Since then, from the next day, the sample dissolved in normal saline solution was orally administered in the volume that was decided in advance one time a day for 3 days. At the next day after completing the sample administration, the experimental animals were suffocated to death with carbon dioxide, and the colon from appendix to the region just before the anus was removed from the colon region. At this time, as a medicine sample, the experiments using the butanol-soluble fraction of the Anemarrhena asphodeloides Bunge extract, Mangiferin, and a combined extract were separately performed at a distance of time, respectively, and the effects of the medicine samples on preventing or treating colitis were reasonably analyzed based on the group supplied with normal saline solution instead of a specific medicine in the model animals with acute colitis induced by TNBS for each of the experiments. […] While the supernatant was stored at −80° C., the expression amounts of IL-1 beta, IL-6, and TNF-alpha, which were proinflammatory cytokines, and the expression amount of IL-10, which was anti-inflammatory cytokine, were measured using a 96-well ELISA plate kits (Pierce Biotechology, Inc., Rockford, Ill., USA).
structure (smiles),measurement,setting,value
"Nc1ccc(O)c(C(=O)O)c1 [mesalazine, Mesalazine]",Colon length,[1],7.1 ± 0.46 cm
same,IL-1 beta conc.,IL-1 beta; Table 4 (group 1),19.8 ± 14.4 pg/mg
same,IL-1 beta conc.,IL-1 beta; Table 5 (group 2),31.1 ± 2.9 pg/mg
same,TNF-alpha conc.,TNF-alpha [2],23.79 ± 2.82 pg/mg
same,TNF-α (Percentage to group supplied with normal saline solution after treating TNBS),TNF-alpha [3],36.8%
